In US20080207616A1, “Quinoxalines as B Baf Inhhibitors” (AstraZeneca AB, priority 2004, published 2008):
pIC50: −log10 of the molar value.

Molecular target: T1, human recombinant, purified wild type His-B-Raf protein kinase (Homo sapiens, UniProt P15056)
T1 construct: His
Assay: B-Raf In Vitro ELISA Assay
Assay type: biochemical
Settings: phosphorylation of MEK1; 2.5 nM B-Raf, 0.15 μM MEK1, 10 μM ATP; 1 hour preincubation at 25° C.
Description: B-Raf In Vitro ELISA Assay
Activity of human recombinant, purified wild type His-B-Raf protein kinase was determined in vitro using an enzyme-linked immunosorbent assay (ELISA) assay format, which measures phosphorylation of the B-Raf substrate, human recombinant, purified His-derived (detagged) MEK1. The reaction utilized 2.5 nM B-Raf, 0.15 μM MEK1 and 10 μM adenosine triphosphate (ATP) in 40 mM N-(2-Hydroxyethyl)piperazine-N′-(2-ethanesulfonic acid hemisodium salt (HEPES), […] 1,4-Dithio-DL-threitol (DTT), 10 mM MgCl2, 1 mM ethylenediaminetetraacetic acid (EDTA) and 0.2 M NaCl (1×HEPES buffer), with or without compound at various concentrations, in a total reaction volume of 25 μl in 384 well plates. B-Raf and compound were preincubated in 1×HEPES buffer for 1 hour at 25° C. Reactions were initiated with addition of MEK1 and ATP in 1× HEPES buffer and incubated at 25° C. for 50 minutes and reactions stopped by addition of 10 μl 75 mM EDTA (final concentration […]) in 1×HEPES buffer. 5 μl of the assay mix was then diluted 1:20 into 50 mM EDTA in 1×HEPES buffer, transferred to 384 well black high protein binding plates and incubated overnight at 4° C. […] Blue fluorescent product was detected at excitation 325 nm and emission 420 nm using a TECAN Ultra plate reader. Data was graphed and IC50s calculated using Excel Fit (Microsoft).

T1 sequence (P15056 whole entry): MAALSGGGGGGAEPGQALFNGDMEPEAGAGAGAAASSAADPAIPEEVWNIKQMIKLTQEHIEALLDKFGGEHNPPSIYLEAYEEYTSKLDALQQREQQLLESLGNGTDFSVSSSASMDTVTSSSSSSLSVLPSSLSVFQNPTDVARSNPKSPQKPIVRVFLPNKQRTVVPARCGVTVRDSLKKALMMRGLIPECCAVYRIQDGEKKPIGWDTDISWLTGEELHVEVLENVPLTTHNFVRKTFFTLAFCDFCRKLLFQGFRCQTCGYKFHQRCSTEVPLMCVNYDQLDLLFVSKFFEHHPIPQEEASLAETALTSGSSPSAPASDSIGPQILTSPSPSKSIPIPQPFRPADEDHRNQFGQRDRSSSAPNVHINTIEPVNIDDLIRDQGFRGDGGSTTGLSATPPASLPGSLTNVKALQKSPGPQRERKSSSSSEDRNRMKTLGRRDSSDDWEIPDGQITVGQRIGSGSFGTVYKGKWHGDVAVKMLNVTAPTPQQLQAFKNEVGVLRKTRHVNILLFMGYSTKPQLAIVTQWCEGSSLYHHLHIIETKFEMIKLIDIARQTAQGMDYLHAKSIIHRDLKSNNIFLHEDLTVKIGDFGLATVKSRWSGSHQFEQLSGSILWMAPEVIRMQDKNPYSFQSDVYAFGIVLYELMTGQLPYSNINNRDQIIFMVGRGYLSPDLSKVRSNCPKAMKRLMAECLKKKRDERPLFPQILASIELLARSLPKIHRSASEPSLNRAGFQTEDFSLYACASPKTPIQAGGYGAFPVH

SMILES | pIC50
CCc1cccc(C(=O)Nc2ccc(C)c(NC(=O)c3ccc4nccnc4c3)c2)c1 [Example 11, N-{5-[(3-Ethylbenzoyl)amino]-2-methylphenyl}quinoxaline-6-carboxamide] | 6.13
CCCOc1cccc(C(=O)Nc2ccc(C)c(NC(=O)c3ccc4nccnc4c3)c2)c1 [Example 12, N-{2-Methyl-5-[(3-propoxybenzoyl)amino]phenyl}quinoxaline-6-carboxamide] | 7.70
